Assay results published in publication PMC12621175, “Scaffold Fusion and SAR Transfer with a Chemical Language Model Generates Novel Liver X Receptor Modulators” (Journal of Medicinal Chemistry, 2025).

Columns and labels:
Gal4-VP16 = Gal4-VP16 control experiment (ligand-independent transcriptional activator); format: cell-based; conditions: 30 μM; vs 0.1% DMSO
Description: (§1) For the hybrid reporter gene assays, the previously reported Gal4-fusion receptor plasmids pFA-CMV-hRORα-LBD, pFA-CMV-hRORβ-LBD, pFA-CMV-hRORγ-LBD, pFA-CMV-hLXRα-LBD, pFA-CMV-hLXRβ-LBD, pFA-CMV-hFXR-LBD, pFA-CMV-hPXR-LBD, and pFA-CMV-hRXRα-LBD, coding for the hinge region, and LBD of the canonical isoform of the respective nuclear receptor were used. pFR-Luc (Stratagene) was used as the reporter plasmid, and pRL-SV40 (Promega) was used in all assays for the normalization of transfection efficiency and cell growth. pECE-SV40-Gal4-VP16 was a gift from Lea Sistonen (Addgene plasmid #71728). The LXR-responsive reporter ABCA1-pGL3 was used for the full-length reporter gene assay.
(§2) The day before transfection, HEK293T cells were seeded in 96-well plates (4 × 10^4 cells/well). […] Luminescence was measured with a Spark 10 M luminometer (Tecan Deutschland GmbH). […] EC50/IC50 values and the standard errors thereof were calculated with the mean fold activation values by OriginPro, Version 2025 (OriginLab Corporation, Northampton, MA, USA), fitting a dose–response curve with a variable Hill slope (Levenberg–Marquardt algorithm). […]
(§3) mediated inhibition of the LXR/RXR heterodimer. […] (c) Quantification of LXR expression on mRNA level in HEK293T and HepG2 cell lines using qRT -PCR. Expression levels were calculated according to the 2 -ΔCt method relative to GAPDH. […]

RXRα = molecular target: T1, RXRα (Homo sapiens, UniProt P19793); assay: Gal4-RXRα hybrid reporter gene assay (control); format: cell-based; conditions: 30 μM; alone and in competition with bexarotene 1 μM
T1 construct: coding for the hinge region, and LBD of the canonical isoform of the respective nuclear receptor; expressed in transfected cells; host or cells: HEK293T
T1 sequence (P19793 227-458 limits assumed): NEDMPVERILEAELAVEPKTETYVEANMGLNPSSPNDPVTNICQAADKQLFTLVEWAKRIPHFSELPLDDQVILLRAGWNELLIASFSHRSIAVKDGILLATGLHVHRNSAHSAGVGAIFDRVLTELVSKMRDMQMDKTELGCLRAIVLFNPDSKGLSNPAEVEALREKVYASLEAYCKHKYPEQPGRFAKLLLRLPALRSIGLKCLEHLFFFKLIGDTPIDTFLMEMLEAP
Description: as §1, §2, §3

CS(=O)(=O)c1cccc(-c2ccc(CN(Cc3cccc(C(F)(F)F)c3Cl)CC(c3ccccc3)c3ccccc3)cc2)c1 [Compound 3, N-(2-Chloro-3-[trifluoromethyl]benzyl)-N-([3′-{methylsulfonyl}-{1,1′-biphenyl}-4-yl]methyl)-2,2-diphenylethan-1-amine]
influence on Gal4-VP16-mediated luciferase reporter expression (Gal4-VP16): no influence
RXR modulation (RXRα): neither activated RXR nor competed with literature RXR agonist bexarotene
